How the values were obtained:
Anas platyrhynchos = conditions: reproductive
Apis mellifera = conditions: acute; oral; unspecified; mortality
Canidae = conditions: chronic; duration: 1 years; oral; Dog Other; organ weight
Colinus virginianus = conditions: acute, oral
Daphnia magna = conditions: chronic/long-term; duration: 21 days
Oncorhynchus mykiss = conditions: acute; duration: 96 hours; mortality
Pimephales promelas = conditions: chronic/long-term; duration: 35 days; other
Pontoscolex corethrurus = conditions: acute; duration: 14 days; mortality
Aphidius rhopalosiphi = assay: LR50; higher = less toxic; conditions: not reported; mortality
Typhlodromus pyri = assay: LR50; higher = less toxic; conditions: not reported; mortality

In the case of CC(C)N1C(=O)c2ccccc2NS1(=O)=O [Bentazone], the NOAEL (Anas platyrhynchos) is reported as 56 mg/kg-day, the LD50 (Apis mellifera) is reported as > 200 µg/piece and the NOAEL (Canidae) is reported as 13 mg/kg-day. For the same compound, the LD50 (Colinus virginianus) was 565 mg/kg-day, the LC50 (Colinus virginianus; diet) was > 500 mg/kg and the NOEC (Daphnia magna) was > 101 mg/L. The LC50 (Oncorhynchus mykiss) was > 48.6 µg/mL, the NOEC (Pimephales promelas) was 10 mg/L and the LC50 (Pontoscolex corethrurus) was > 1000 mg/kg. It also gave an LD50 (Rattus norvegicus; acute, M/F) of 1640 mg/kg-day, an NOAEL (Rattus norvegicus; chronic, duration: 2 years, other) of 9 mg/kg-day and an NOAEL (Rattus norvegicus; developmental, development) of 100 mg/kg-day. For the same compound, the NOAEL (Rattus norvegicus; reproduction developmental) was 10.3 mg/kg-day, the LR50 (Aphidius rhopalosiphi) was 699 g/ha and the LR50 (Typhlodromus pyri) was 2800 g/ha.

— EPA's ToxValDB 9.5 (doi:10.2903/j.efsa.2015.4077)
